The results in this text go back to ChEMBL document CHEMBL1126373, “HIV and reverse transcriptase inhibition by tannins” (Bioorg Med Chem Lett, 1992).

SMILES strings stand for the structures. Activity calls are given as the source filed them. The rule behind the calls is not given here.

For series [1], the system named is Human immunodeficiency virus 1. Description: Compound was tested for anti-HIV activity in cell culture assay; active anti HIV agent. The class given is functional, organism-based.
The subject of series [2] is Human immunodeficiency virus 1. The series is described as follows: Compound was tested for anti-HIV activity in cell culture assay expressed as IC50 values. In kind it is functional, organism-based.
For series [3], the system named is Human immunodeficiency virus 1. The series is described as follows: Inhibition against HIV replication in cell culture at 20 ug/mL. In kind it is functional. Conditions: for inhibition at 20 µg/mL: Human immunodeficiency virus 1.
Series [4] concerns Human immunodeficiency virus 1. The series is described as follows: Anti-HIV activity in cell culture assay expressed as EC50 values. The class given is functional, organism-based.
The target of series [5] is Human immunodeficiency virus type 1 reverse transcriptase (Human immunodeficiency virus 1) (UniProt Q72547). Description: Inhibition against HIV- reverse transcriptase in cell culture at 20 ug/mL.
Series [6] deals with Human immunodeficiency virus 1. Description: (§1) Therapeutic index was determined. Conditions: read-out: Therapeutic index.
In series [7] the test system is Human immunodeficiency virus 1. The series is described as follows: Anti-HIV activity in cell culture assay expressed as IC50 values. The class given is functional, organism-based.
Series [8] can be described thus: as §1. Conditions: Human immunodeficiency virus 1.

As for `O=C(Oc1c(O)cc(C(=O)O[C@H]2[C@H](OC(=O)c3cc(O)c(O)c(O)c3)C[C@](O)(C(=O)O)C[C@H]2OC(=O)c2cc(O)c(O)c(O)c2)cc1O)c1cc(O)c(O)c(O)c1`, the Activity entry in series [1] is “active anti HIV agent”.

For `O=C1OC(C2OC(=O)c3cc(O)c(O)c(O)c3-c3c(O)c(O)c4oc(=O)c5c(c(O)c(O)c6oc(=O)c3c4c65)-c3c(cc(O)c(O)c3O)C(=O)OCC2O)C2OC(=O)c3c(c(O)c(O)c(O)c3[C@H]2O)-c2c1cc(O)c(O)c2O` (stereo not given in full), the Activity entry in series [1] was “active anti HIV agent”.

Regarding `O=C1OC[C@H]2O[C@@H](O)[C@H](O)[C@@H](O)[C@@H]2OC(=O)c2cc(O)c(O)c(O)c2-c2c(O)c(O)c3oc(=O)c4c(c(O)c(O)c5oc(=O)c2c3c54)-c2c1cc(O)c(O)c2O`, the Activity result in series [1] is “active anti HIV agent”.

For `O=C(Oc1c(O)cc(C(=O)O[C@@H]2C[C@@](O)(C(=O)O)C[C@@H](OC(=O)c3cc(O)c(O)c(O)c3)[C@@H]2OC(=O)c2cc(O)c(O)c(O)c2)cc1O)c1cc(O)c(O)c(O)c1`, in series [1], the Activity entry was “active anti HIV agent”.

As to `O=C(O[C@@H]1C[C@](OC(=O)c2cc(O)c(O)c(O)c2)(C(=O)O)C[C@@H](OC(=O)c2cc(O)c(O)c(O)c2)[C@H]1OC(=O)c1cc(O)c(O)c(O)c1)c1cc(O)c(O)c(O)c1`, the result in series [1] was Active.

For `O=C(O[C@@H]1O[C@H](CO)[C@@H](O)[C@H](O)[C@H]1O)c1cc(O)c(O)c(O)c1`, in series [2], the IC50 (as a rule, the concentration that gives 50% inhibition) was 80 µM. In addition, testing at 20 µg/mL in series [3] gave an inhibition of 0%. The concentration giving a half-maximal response (EC50) (in general, the midpoint of the concentration-response curve) in series [4] (Human immunodeficiency virus 1) was determined as 100 µM. The inhibition (usually the relative decrease from the control value, in per cent) in series [5] worked out at 18%. Also, the selectivity ratio in series [6] worked out at 0.8.

Take `O=C(OC[C@H]1O[C@@H](OC(=O)c2cc(O)c(O)c(O)c2)[C@H](OC(=O)c2cc(O)c(O)c(O)c2)[C@@H](OC(=O)c2cc(O)c(O)c(O)c2)[C@@H]1OC(=O)c1cc(O)c(O)c(O)c1)c1cc(O)c(O)c(O)c1` (stereo in doubt; 10) [PENTAGALLOYL GLUCOSE]: inhibition in series [7] was half-maximal at 19 µM (IC50). In addition, the Inhibition (usually the relative decrease from the control value, in per cent) in series [3] stood at 60%. Also, the EC50 in series [4] came out at 15 µM. For the same compound, in series [8], the Therapeutic index is listed as 1.3.

As for `O=C(OC[C@H]1O[C@@H](OC(=O)c2cc(O)c(O)c(O)c2)[C@H](O)[C@@H](O)[C@@H]1O)c1cc(O)c(O)c(O)c1`, in series [2], the IC50 came to 38 µM. Further, in series [3], at 20 µg/mL the inhibition was 40%. This compound returned an EC50 in series [4] (Human immunodeficiency virus 1) of 50 µM. For the same compound, the inhibition in series [5] was 14%. Moreover, the selectivity ratio in series [6] turned out to be 0.8.

For `O=C(Oc1c(O)cc(C(=O)O[C@@H]2C[C@](O)(C(=O)O)C[C@@H](OC(=O)c3cc(O)c(O)c(O)c3)[C@H]2OC(=O)c2cc(O)c(O)c(O)c2)cc1O)c1cc(O)c(O)c(O)c1`, in series [1], the Activity entry is “active anti HIV agent”.

In series [7] (Human immunodeficiency virus 1), `O=C(OC[C@@H]1O[C@@H](OC(=O)c2cc(O)c(O)c(O)c2)[C@@H](OC(=O)c2cc(O)c(O)c(O)c2)[C@@H](OC(=O)c2cc(O)c(O)c(O)c2)[C@@H]1OC(=O)c1cc(O)c(O)c(O)c1Oc1cc2c(c(O)c1O)-c1c(cc(O)c(O)c1O)C(=O)OC[C@@H]1O[C@@H](OC(=O)c3cc(O)c(O)c(O)c3)[C@@H](OC(=O)c3cc(O)c(O)c(O)c3)[C@@H](OC(=O)c3cc(O)c(O)c(O)c3)[C@@H]1OC2=O)c1cc(O)c(O)c(O)c1` registered an IC50 of 39 µM. In series [3], this compound had an inhibition at 20 µg/mL of 50%. In addition, it took 12 µM to reach a half-maximal effect in series [4] (Human immunodeficiency virus 1) (EC50). In series [5], this compound returned an inhibition of 0%. For the same compound, the selectivity ratio in series [6] was 3.3.

Turning to `O=C(O[C@@H]1[C@@H](c2c(O)cc(O)c3c2O[C@H](c2ccc(O)c(O)c2)[C@H](OC(=O)c2cc(O)c(O)c(O)c2)C3)c2c(O)cc(O)c([C@H]3c4c(O)cc(O)cc4O[C@H](c4ccc(O)c(O)c4)[C@@H]3OC(=O)c3cc(O)c(O)c(O)c3)c2O[C@@H]1c1ccc(O)c(O)c1)c1cc(O)c(O)c(O)c1`, the IC50 in series [7] (Human immunodeficiency virus 1) was over 25 µM. Besides, in series [3], the inhibition at 20 µg/mL was 47%. For the same compound, the EC50 in series [4] (Human immunodeficiency virus 1) stood at 17 µM. Besides, in series [5], the inhibition was 13%. The selectivity ratio in series [6] is over 1.5.

`O=C1O[C@H]2[C@H](OC(=O)c3cc(O)c(O)c(O)c3)[C@@H](OC(=O)c3cc(O)c(O)c4c3[C@@H]3C1=CC(=O)C(O)(O)C3(O)O4)[C@H](OC(=O)c1cc(O)c(O)c(O)c1)O[C@@H]2COC(=O)c1cc(O)c(O)c(O)c1` (stereo not given in full) [TERCHEBIN] yielded an IC50 in series [7] (Human immunodeficiency virus 1) of 40 µM. In series [3], at 20 µg/mL the inhibition was 50%. The midpoint of the response in series [4] (Human immunodeficiency virus 1), the EC50, lay at 21 µM. Moreover, the inhibition in series [5] is 13%. In series [6], the selectivity ratio came to 1.9.

As for `O=C(O)C1=C[C@@H](O)[C@@H](O)[C@H](OC(=O)c2cc(O)c(O)c(OC(=O)c3cc(O)c(O)c(O)c3)c2)C1`, the concentration for half-maximal inhibition (IC50) in series [7] (Human immunodeficiency virus 1) was found to be 40 µM. The compound also registered an inhibition at 20 µg/mL in series [3] of 60%. This compound returned a concentration for a half-maximal effect (EC50) in series [4] (Human immunodeficiency virus 1) of 30 µM. The inhibition in series [5] worked out at 31%. Moreover, the selectivity ratio in series [6] was determined as 1.3.

In series [7] (Human immunodeficiency virus 1), `O=C(O)C1=C[C@@H](O)[C@@H](O)[C@H](OC(=O)c2cc(O)c(O)c(O)c2)C1` displayed an IC50 of 25 µM. The same compound showed an inhibition at 20 µg/mL in series [3] of 90%. The compound further yielded an EC50 in series [4] (Human immunodeficiency virus 1) of 18 µM. In addition, the inhibition in series [5] was 0%. Also, the selectivity ratio in series [6] stood at 1.4.

As to `O=C1OCC2OC(=O)c3cc(O)c(O)c(O)c3-c3c(O)c(O)c(O)c4c3C(=O)OC(C2OC(=O)c2cc(O)c(O)c(O)c2-c2c1cc(O)c(O)c2O)C1OC(=O)c2c-4c(O)c(O)c(O)c2[C@H]1O` (stereo not given in full), the IC50 in series [7] (Human immunodeficiency virus 1) turned out to be 15 µM. Further, testing at 20 µg/mL in series [3] gave an inhibition of 90%. For the same compound, the EC50 in series [4] (Human immunodeficiency virus 1) came out at 16 µM. For the same compound, the inhibition in series [5] came to 45%. The selectivity ratio in series [6] was found to be 0.9.

The compound `Oc1cc(O)c2c(c1)O[C@@]1(c3ccc(O)c(O)c3)Oc3cc(O)c4c(c3[C@@H]2[C@H]1O)O[C@H](c1ccc(O)c(O)c1)[C@H](O)[C@H]4c1c(O)cc(O)c2c1O[C@H](c1ccc(O)c(O)c1)[C@H](O)C2` [CINNAMTANNIN B1] yielded an IC50 in series [7] (Human immunodeficiency virus 1) of over 25 µM. In series [3], this compound registered an inhibition at 20 µg/mL of 90%. In addition, in series [4] (Human immunodeficiency virus 1), the concentration for a half-maximal effect (EC50) turned out to be 21 µM. The compound further registered an inhibition in series [5] of 13%. Moreover, in series [6], the selectivity ratio was over 1.2.
